Assay results from ChEMBL document CHEMBL1201862, “PubChem BioAssay data set” (2004).
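48-hour exposure; five concentrations; linearly interpolated endpoints. At the GI50, growth is halved.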 Active and inactive are the calls of the source. No stated cut-off is given here; in the data, active = GI50 up to about 1.1 µM and inactive = higher.

Legend:
Assay in all cases: DTP human tumour cell line panel, 48 h
K562 = system: K562
A498 = system: A498
SF-539 = system: SF-539
NCI-H226 = system: NCI-H226
DU-145 = system: DU-145
HT-29 = system: HT-29
UACC-62 = system: UACC-62
A549 = system: A549
PC-3 = system: PC-3
HOP-92 = system: HOP-92
SK-MEL-2 = system: SK-MEL-2
SW-620 = system: SW-620
SK-MEL-28 = system: SK-MEL-28
BT-549 = system: BT-549
OVCAR-5 = system: OVCAR-5
SNB-19 = system: SNB-19
RPMI-8226 = system: RPMI-8226
CAKI-1 = system: CAKI-1
CCRF-CEM = system: CCRF-CEM
NCI-H460 = system: NCI-H460

Measured: GI50

Cc1nn(CN2CCN(C)CC2)c(=S)n1/N=C/c1ccc(-c2ccc(Cl)cc2Cl)o1
inactive: K562 50.8 µM | A498 19.2 µM | SF-539 35.9 µM | NCI-H226 29.4 µM | DU-145 > 100 µM | HT-29 89.1 µM | UACC-62 99.5 µM | A549 > 100 µM | PC-3 68.7 µM | HOP-92 > 100 µM | SK-MEL-2 > 100 µM | SW-620 42.7 µM | SK-MEL-28 > 100 µM | BT-549 > 100 µM | OVCAR-5 > 100 µM | SNB-19 > 100 µM

COc1ccc(/C=C2\CCC(C)c3c2nc(N)c(C#N)c3-c2ccc(OC)c(OC)c2)cc1OC (configuration not stated)
inactive: K562 12 µM | SF-539 27.4 µM | NCI-H226 5.7 µM | RPMI-8226 3.65 µM | DU-145 20.7 µM | HT-29 6.25 µM | UACC-62 88.1 µM | CAKI-1 58.5 µM | PC-3 2.92 µM | SK-MEL-2 2.42 µM | SW-620 > 100 µM | SK-MEL-28 45.8 µM | BT-549 8 µM | CCRF-CEM 3.89 µM | OVCAR-5 36.9 µM | SNB-19 72.4 µM

CN(C)C(=O)CO/N=C1/C(=C2/C(=O)Nc3ccccc32)Nc2ccccc21
inactive: K562 > 100 µM | NCI-H460 > 100 µM | SF-539 39.3 µM | NCI-H226 > 100 µM | RPMI-8226 > 100 µM | DU-145 > 100 µM | HT-29 > 100 µM | UACC-62 > 100 µM | A549 > 100 µM | CAKI-1 4.69 µM | PC-3 > 100 µM | HOP-92 > 100 µM | SK-MEL-2 > 100 µM | SW-620 > 100 µM | SK-MEL-28 > 100 µM | BT-549 65.9 µM | CCRF-CEM > 100 µM | OVCAR-5 > 100 µM | SNB-19 > 100 µM

CC(=O)OCC(OC(C)=O)C(OC(C)=O)C(OC(C)=O)C(C=NN(C(C)=O)S(=O)(=O)c1ccc(/C=C2\NC(=O)NC2=O)cc1)OC(C)=O (configuration not stated)
inactive: K562 > 100 µM | NCI-H460 > 100 µM | A498 > 100 µM | NCI-H226 > 100 µM | RPMI-8226 > 100 µM | DU-145 > 100 µM | HT-29 > 100 µM | UACC-62 > 100 µM | A549 > 100 µM | CAKI-1 > 100 µM | PC-3 > 100 µM | SK-MEL-2 > 100 µM | SW-620 > 100 µM | BT-549 > 100 µM | CCRF-CEM 84.3 µM | OVCAR-5 > 100 µM | SNB-19 > 100 µM

Cc1nn(C(=O)Cc2ccccc2)c2c1C(c1ccccc1)SC(=N)N2 (configuration not stated)
inactive: K562 > 100 µM | NCI-H460 > 100 µM | A498 > 100 µM | SF-539 > 100 µM | NCI-H226 > 100 µM | RPMI-8226 > 100 µM | DU-145 > 100 µM | HT-29 > 100 µM | UACC-62 > 100 µM | A549 > 100 µM | CAKI-1 > 100 µM | PC-3 > 100 µM | SW-620 > 100 µM | SK-MEL-28 > 100 µM | BT-549 > 100 µM | CCRF-CEM > 100 µM | SNB-19 > 100 µM

COC(=O)/C(=N\NC(=S)NN)C(C(=O)OC)C(=O)C(=O)Nc1cccc(C(F)(F)F)c1 (configuration not stated)
inactive: NCI-H460 > 100 µM | A498 > 100 µM | SF-539 > 100 µM | NCI-H226 > 100 µM | RPMI-8226 > 100 µM | HT-29 > 100 µM | UACC-62 > 100 µM | A549 > 100 µM | CAKI-1 > 100 µM | PC-3 > 100 µM | HOP-92 > 100 µM | SK-MEL-2 > 100 µM | SW-620 > 100 µM | SK-MEL-28 49.3 µM | BT-549 > 100 µM | CCRF-CEM > 100 µM | OVCAR-5 79.1 µM | SNB-19 > 100 µM

CCOP(=O)(OCC)[C@]12C[C@@H](C)C=C[C@H]1COC2=O
inactive: K562 > 100 µM | NCI-H460 > 100 µM | A498 > 100 µM | SF-539 > 100 µM | RPMI-8226 > 100 µM | DU-145 > 100 µM | UACC-62 > 100 µM | A549 > 100 µM | CAKI-1 > 100 µM | PC-3 > 100 µM | SK-MEL-2 > 100 µM | SW-620 > 100 µM | SK-MEL-28 > 100 µM | BT-549 > 100 µM | CCRF-CEM > 100 µM | OVCAR-5 > 100 µM | SNB-19 > 100 µM

S=C1CSc2c(cnc3ccccc23)N1
inactive: K562 > 100 µM | NCI-H460 56.6 µM | NCI-H226 53.7 µM | RPMI-8226 > 100 µM | DU-145 > 100 µM | HT-29 > 100 µM | UACC-62 > 100 µM | A549 > 100 µM | CAKI-1 78.7 µM | PC-3 68.4 µM | SK-MEL-28 > 100 µM | BT-549 71.4 µM | CCRF-CEM > 100 µM | OVCAR-5 > 100 µM | SNB-19 > 100 µM

CN(CCSCCN(C)C(=O)OC(C)(C)C)C(=O)OC(C)(C)C
inactive: K562 > 100 µM | NCI-H460 > 100 µM | SF-539 > 100 µM | DU-145 > 100 µM | HT-29 > 100 µM | UACC-62 > 100 µM | A549 > 100 µM | CAKI-1 > 100 µM | PC-3 > 100 µM | HOP-92 > 100 µM | SK-MEL-2 > 100 µM | SW-620 > 100 µM | SK-MEL-28 > 100 µM | BT-549 > 100 µM | CCRF-CEM > 100 µM | OVCAR-5 > 100 µM | SNB-19 > 100 µM

CCOC(=O)CCCn1nnc(C(=O)OCC)c1C(=O)OCC
inactive: NCI-H460 > 100 µM | SF-539 > 100 µM | NCI-H226 > 100 µM | DU-145 > 100 µM | HT-29 > 100 µM | UACC-62 > 100 µM | A549 > 100 µM | CAKI-1 > 100 µM | PC-3 > 100 µM | HOP-92 > 100 µM | SK-MEL-2 > 100 µM | SW-620 > 100 µM | SK-MEL-28 > 100 µM | BT-549 > 100 µM | CCRF-CEM > 100 µM | SNB-19 > 100 µM

Cc1cc(O)c2c(c1O)C(=O)c1cccc(O)c1C2=O [ISLANDICIN]
inactive: K562 > 100 µM | NCI-H460 > 100 µM | SF-539 > 100 µM | NCI-H226 > 100 µM | RPMI-8226 > 100 µM | DU-145 > 100 µM | HT-29 > 100 µM | UACC-62 > 100 µM | A549 > 100 µM | CAKI-1 > 100 µM | PC-3 > 100 µM | HOP-92 > 100 µM | SK-MEL-2 > 100 µM | SW-620 > 100 µM | SK-MEL-28 > 100 µM | BT-549 > 100 µM | CCRF-CEM > 100 µM | OVCAR-5 > 100 µM | SNB-19 > 100 µM
